{
  "source": "patent US20120065126A1",
  "about": "“Pharmaceutical Compositions Containing Antifungal Peptides” (BASF SE, priority 2009, published 2012)",
  "key": {"[1]": {"system": "Klebsiella pneumoniae (DSM 681)", "format": "cell-based", "conditions": "DSM 681, 24 h", "description": "Effect of peptide P18 (P18 sequence H-KWKLFKKIPKFLHLAKKF-NH2 (Bachem AG, Switzerland)) on Klebsiella pneumoniae (DSM 681) to study.\nTSBY growth medium (Becton, Dickinson and Company, Sparks, USA) 17 g of pancreatin-degraded caseine 3 g of pancreatin-degraded soya 2.5 g of dextrose 5 g of sodium chloride 2.5 g of dipotassium phosphate 3 g of yeast extract (Becton, Dickinson and Company, Sparks, USA) make up to 1 liter, set pH 7\nA shake culture containing TSBY medium was inoculated with K. pneumoniae and incubated with shaking at 37° C. and 200 rpm overnight.\nThe suspension was adjusted to an optical density measured at 600 nm of 0.1. A 96-well microtiter plate was filled with 95 μl per well of the K. pneumoniae suspension. Then a dilution series of the peptide with a final concentration in the wells between 0 and 1000 ppm was added. To this end, 5 μl per well of peptide solution with a concentration in the range from 0 ppm to 20 000 ppm were added to the K. pneumoniae suspension, so as to obtain final concentrations of the peptide in the wells in the range between 0 ppm and 1000 ppm.\nThe microtiter plate was incubated at 37° C., 600 rpm. The bacterial growth was assessed by measuring the optical density at 620 nm and observing it over 24 hours. The experiments were conducted at least in double determination and were independently repeated at least once."}, "[2]": {"system": "E. coli (Stratagene, BLR)", "assay": "P18 in pharmaceutical base formulation (CFU)", "format": "cell-based, Escherichia coli", "conditions": "mixed 1:9 with suspension", "procedure": "The aim of the experiment was to study the effect of a pharmaceutical base formulation containing the P18 peptide ingredient (P18 sequence H-KWKLFKKIPKFLHLAKKF-NH2 (Bachem AG, Switzerland)). For this purpose, the following base formulation was used: […]\n1% hydroxycellulose 10% propylene glycol made up with water.\nBased on the base formulation, formulations with rising P18 concentrations (500 ppm to 10 000 ppm) were prepared from a 20% concentrate solution.\nThe effect of the formulations on E. coli (Stratagene, BLR) was studied.\nLB growth medium (Becton, Dickinson and Company, Sparks, USA) […] make up to 1 liter, set pH 7\nThe growth test was effected as follows: 5 ml of LB medium were inoculated with E. coli and incubated at 37° C. and 200 rpm overnight.\n1.5 ml reaction vessels were each filled with 1 ml of LB medium and inoculated with the E. coli suspension from the overnight culture such that an optical density, measured at 600 nm, of 0.1 was obtained at the start of the experiment. The resulting E. coli suspension was mixed in a ratio of 1:9 (formulation: E. coli suspension) with the formulations. 1 μl of the culture was diluted with 20 μl of LB medium after 5 minutes, 10 minutes, 20 minutes and 60 minutes, and then plated out. After incubation over 24 hours, the colonies on the plates were counted."}, "M. furfur DSM 6170": {"system": "M. furfur DSM 6170", "assay": "Comparison of the efficacy of P18 and AFPP in a shampoo formulation (CFU)", "format": "cell-based, Malassezia furfur", "conditions": "1:10 with culture medium", "procedure": "In order to study the efficacy of AFPP compared to P18 (SEQ ID NO. 3; sequence: KWKLFKKIPKFLHLAKKF-NH2 (Bachem AG, Switzerland)) in a shampoo formulation, the experiment described in Example 24 was repeated with a shampoo formulation.\nBoth peptides were present as 2% (w/w) solutions in phosphate buffer (10 mM sodium phosphate, pH 7.5, 100 mM NaCl).\nPeptide solution with a final concentration of 0.1% and 0.2% was added to the shampoo formulation. The resulting formulations were stirred over 16 hours in order to obtain homogeneous solutions. The same procedure was repeated with equivalent volumes of the phosphate buffer in order to rule out any influence of the phosphate buffer on the test results.\nThe growth test was effected as follows: a shake culture containing M472 Pityrosporum medium was inoculated with M. furfur DSM 6170 (DSMZ) and incubated with shaking at 30° C. and 200 rpm overnight.\nFor each test mixture, a 1.5 ml reaction vessel was filled with Pityrosporum medium and inoculated with the M. furfur overnight culture to give a start OD of 0.1, measured at 600 nm.\nThe growth of the following test mixtures was monitored: • M. furfur suspension and addition of phosphate buffer in shampoo formulation in an equivalent amount to the volumes which were added with peptide-shampoo solution (in order to rule out any influence of the phosphate buffer on the effect of the active peptides at concentrations in the shampoo formulation of 0.1% or 0.2%) • M. furfur suspension and shampoo formulation with a P18 concentration of 0.1% • M. furfur suspension and shampoo formulation with a P18 concentration of 0.2% • M. furfur suspension and shampoo formulation with an AFPP concentration of 0.1% • M. furfur suspension and shampoo formulation with a final AFPP concentration of 0.2%\nThe ratio of the shampoo formulation to the M. furfur culture medium was 1:10 in all test mixtures (shampoo formulation: M. furfur culture medium). The reaction volume was 1 ml.\nThe growth of M. furfur in the test mixtures was observed over a period of 20 minutes. For this purpose, the mixtures were diluted in M472 medium in a ratio of 1:10 after 10 minutes and 20 minutes, and then 10 μl were plated out. The CFU (colony forming units) were determined by counting after incubation at 30° C. for 6 days.\nThe experiments were effected in double determination and were independently repeated at least once."}},
  "data": [
    {"substance": "H-KWKLFKKIPKFLHLAKKF-NH2 [P18, H-KWKLFKKIPKFLHLAKKF-NH2]", "values": [
      {"measurement": "Minimum inhibitory concentration", "setting": "[1]", "result": 125, "unit": "ppm"},
      {"measurement": "Colony forming units after the incubation time specified", "setting": "[2]; 10 000 ppm in the formulation, 5 minutes", "result": "1778 ± 314", "unit": "CFU"},
      {"measurement": "Colony forming units after the incubation time specified", "setting": "[2]; 10 000 ppm in the formulation, 10 minutes", "result": "901 ± 120", "unit": "CFU"},
      {"measurement": "Colony forming units after the incubation time specified", "setting": "[2]; 10 000 ppm in the formulation, 20 minutes", "result": "226 ± 286", "unit": "CFU"},
      {"measurement": "Colony forming units after the incubation time specified", "setting": "[2]; 10 000 ppm in the formulation, 60 minutes", "result": "7.75 ± 9.5", "unit": "CFU"},
      {"measurement": "Colony forming units after the incubation time specified", "setting": "[2]; 500 ppm in the formulation, 5 minutes", "result": "2000 ± 0", "unit": "CFU"},
      {"measurement": "Colony forming units after the incubation time specified", "setting": "[2]; 500 ppm in the formulation, 10 minutes", "result": "2000 ± 0", "unit": "CFU"},
      {"measurement": "Colony forming units after the incubation time specified", "setting": "[2]; 500 ppm in the formulation, 20 minutes", "result": "2000 ± 0", "unit": "CFU"},
      {"measurement": "Colony forming units after the incubation time specified", "setting": "[2]; 500 ppm in the formulation, 60 minutes", "result": "709 ± 451", "unit": "CFU"},
      {"measurement": "Colony forming units after the incubation time specified", "setting": "[2]; 1000 ppm in the formulation, 5 minutes", "result": "2000 ± 0", "unit": "CFU"},
      {"measurement": "Colony forming units after the incubation time specified", "setting": "[2]; 1000 ppm in the formulation, 10 minutes", "result": "2000 ± 0", "unit": "CFU"},
      {"measurement": "Colony forming units after the incubation time specified", "setting": "[2]; 1000 ppm in the formulation, 20 minutes", "result": "1619 ± 534", "unit": "CFU"},
      {"measurement": "Colony forming units after the incubation time specified", "setting": "[2]; 1000 ppm in the formulation, 60 minutes", "result": "332 ± 236", "unit": "CFU"},
      {"measurement": "Colony forming units after the incubation time specified", "setting": "[2]; 2000 ppm in the formulation, 5 minutes", "result": "2000 ± 0", "unit": "CFU"},
      {"measurement": "Colony forming units after the incubation time specified", "setting": "[2]; 2000 ppm in the formulation, 10 minutes", "result": "2000 ± 0", "unit": "CFU"},
      {"measurement": "Colony forming units after the incubation time specified", "setting": "[2]; 2000 ppm in the formulation, 20 minutes", "result": "733 ± 349", "unit": "CFU"},
      {"measurement": "Colony forming units after the incubation time specified", "setting": "[2]; 2000 ppm in the formulation, 60 minutes", "result": "93 ± 127", "unit": "CFU"},
      {"measurement": "Colony forming units after the incubation time specified", "setting": "[2]; 5000 ppm in the formulation, 5 minutes", "result": "2000 ± 0", "unit": "CFU"},
      {"measurement": "Colony forming units after the incubation time specified", "setting": "[2]; 5000 ppm in the formulation, 10 minutes", "result": "1225 ± 339", "unit": "CFU"},
      {"measurement": "Colony forming units after the incubation time specified", "setting": "[2]; 5000 ppm in the formulation, 20 minutes", "result": "411 ± 516", "unit": "CFU"},
      {"measurement": "Colony forming units after the incubation time specified", "setting": "[2]; 5000 ppm in the formulation, 60 minutes", "result": "29 ± 36", "unit": "CFU"},
      {"measurement": "Colony forming units after the incubation time specified", "setting": "M. furfur DSM 6170; 0.1% in the shampoo formulation, 10 minutes", "result": "80 ± 10", "unit": "CFU"},
      {"measurement": "Colony forming units after the incubation time specified", "setting": "M. furfur DSM 6170; 0.1% in the shampoo formulation, 20 minutes", "result": "38 ± 21", "unit": "CFU"},
      {"measurement": "Colony forming units after the incubation time specified", "setting": "M. furfur DSM 6170; 0.2% in the shampoo formulation, 10 minutes", "result": "21 ± 17", "unit": "CFU"},
      {"measurement": "Colony forming units after the incubation time specified", "setting": "M. furfur DSM 6170; 0.2% in the shampoo formulation, 20 minutes", "result": "3 ± 1", "unit": "CFU"}
    ]}
  ]
}
